Laboratory results reported in patent US7294635B2 (Portola Pharmaceuticals, Inc., priority 2003, dated 2007).

Tested on: ADP-induced human platelet aggregation
Test: Inhibition of ADP-mediated platelet aggregation in vitro using platelet-rich plasma (PRP assay)
Format: cell-based
Conditions: 5 min; human platelet-rich plasma, 2 μM ADP, 96-well microtiter, OD 650 nm at 5 min; read-out: Activity in the PRP assay
Description: This Example Provides an Assay for the Inhibition of ADP-Mediated Platelet Aggregation In Vitro Using Platelet-Rich Plasma (PRP)
Platelet-rich plasma (PRP) is prepared by centrifugation at 160×g for 20 minutes at room temperature. PRP is collected, and the platelet concentration is determined using a Coulter counter or hemocytometer (platelet concentration should be 2-4×10^8 platelets per mL).
Inhibition of ADP-dependent aggregation is preferably determined in 96-well flat-bottom microtiter plates using a microtiter plate shaker and plate reader similar to the procedure described by Frantantoni et al., Am. J. Clin. Pathol. […] All steps are performed at room temperature. The total reaction volume of 0.2 mL/well includes: PRP (˜6×10^7 total platelets in the presence of plasma), serial dilutions of test compounds (buffer for control wells) in 0.6% DMSO. After about 5 minutes preincubation at room temperature, ADP is added to a final concentration of 2 μM which induces submaximal aggregation. Buffer is added instead of ADP to one set of control wells (ADP-control). The OD of the samples is then determined at 650 nm using a microtiter plate reader (Softmax, Molecular Devices, Menlo Park, Calif.) resulting in the 0 minute reading. The plates are then agitated for 5 min on a microtiter plate shaker and the 5 minute reading is obtained in the plate reader. Aggregation is calculated from the decrease of OD at 650 nm at t=5 minutes compared to t=0 minutes and is expressed as % of the decrease in the ADP control samples after correcting for changes in the unaggregated control samples.

SMILES	IC50
CNc1cc2ccn(-c3ccc(NC(=O)NS(=O)(=O)c4ccc(Cl)s4)c(O)c3)c(=O)c2cc1F [Example 77, 5-chloro-N-[({4-[7-fluoro-6-(methylamino)-1-oxoisoquinolin-2(1H)-yl]-2-hydroxyphenyl}amino)carbonyl]thiophene-2-sulfonamide]	< 10 µM
CNc1cc2ccn(-c3ccc(NC(=O)NS(=O)(=O)c4ccc(Cl)s4)c(OCc4ccccc4)c3)c(=O)c2cc1F [Example 79, N-[({2-(benzyloxy)-4-[7-fluoro-6-(methylamino)-1-oxoisoquinolin-2(1H)-yl]phenyl}amino)carbonyl]-5-chlorothiophene-2-sulfonamide]	> 30 µM
CCCCNc1cc(-n2ccc3cc(NC)c(F)cc3c2=O)ccc1NC(=O)NS(=O)(=O)c1ccc(Cl)s1 [Example 80, N-[({2-(butylamino)-4-[7-fluoro-6-(methylamino)-1-oxoisoquinolin-2(1H)-yl]phenyl}amino)carbonyl]-5-chlorothiophene-2-sulfonamide]	> 30 µM
CCc1cc(-n2ccc3cc(NC)c(F)cc3c2=O)ccc1NC(=O)NS(=O)(=O)c1ccc(Cl)s1 [Example 81, 5-chloro-N-[({2-ethyl-4-[7-fluoro-6-(methylamino)-1-oxoisoquinolin-2(1H)-yl]phenyl}amino)carbonyl]thiophene-2-sulfonamide]	< 10 µM
CNc1cc2ccn(-c3ccc(NC(=O)NS(=O)(=O)c4ccc(Cl)s4)c(OCCOC(C)=O)c3)c(=O)c2cc1F [Example 82, 2-{2-[({[(5-chlorothien-2-yl)sulfonyl]amino}carbonyl)amino]-5-[7-fluoro-6-(methylamino)-1-oxoisoquinolin-2(1H)-yl]phenoxy}ethyl acetate]	10 to 30 µM
CNc1cc2ccn(-c3ccc(NC(=O)NS(=O)(=O)c4ccc(Cl)s4)c(OCCO)c3)c(=O)c2cc1F [Example 83, 5-chloro-N-({[4-[7-fluoro-6-(methylamino)-1-oxoisoquinolin-2(1H)-yl]-2-(2-hydroxyethoxy)phenyl]amino}carbonyl)thiophene-2-sulfonamide]	< 10 µM
CNc1cc2ccn(-c3ccc(NC(=O)NS(=O)(=O)c4ccc(Cl)s4)c(OC(C)C)c3)c(=O)c2cc1F [Example 84, 5-chloro-N-[({4-[7-fluoro-6-(methylamino)-1-oxoisoquinolin-2(1H)-yl]-2-isopropoxyphenyl}amino)carbonyl]thiophene-2-sulfonamide]	10 to 30 µM
CNc1cc2ccn(-c3ccc(NC(=O)NS(=O)(=O)c4ccc(Cl)s4)c(C(F)F)c3)c(=O)c2cc1F [Example 85, 5-chloro-N-[({2-(difluoromethyl)-4-[7-fluoro-6-(methylamino)-1-oxoisoquinolin-2(1H)-yl]phenyl}amino)carbonyl]thiophene-2-sulfonamide]	< 10 µM
CNc1cc2ccn(-c3ccc(NC(=O)NS(=O)(=O)c4ccc(Cl)s4)c(OCC4CC4)c3)c(=O)c2cc1F [Example 86, 5-chloro-N-[({2-(cyclopropylmethoxy)-4-[7-fluoro-6-(methylamino)-1-oxoisoquinolin-2(1H)-yl]phenyl}amino)carbonyl]thiophene-2-sulfonamide]	< 10 µM
CNc1cc2ccn(-c3ccc(NC(=O)NS(=O)(=O)c4ccc(Cl)s4)c(OC(F)(F)F)c3)c(=O)c2cc1F [Example 87, 5-chloro-N-({[4-[7-fluoro-6-(methylamino)-1-oxoisoquinolin-2(1H)-yl]-2-(trifluoromethoxy)phenyl]amino}carbonyl)thiophene-2-sulfonamide]	< 10 µM
CNc1cc2ccn(-c3ccc(NC(=O)NS(=O)(=O)c4ccc(Cl)s4)c(C(C)=O)c3)c(=O)c2cc1F [Example 88, N-[({2-acetyl-4-[7-fluoro-6-(methylamino)-1-oxoisoquinolin-2(1H)-yl]phenyl}amino)carbonyl]-5-chlorothiophene-2-sulfonamide]	< 10 µM
